{
  "source": "patent US4857547A",
  "about": "“Novel HMG-CoA reductase inhibitors” (Merck & Co., Inc., priority 1988, dated 1989)",
  "data": [
    {"biological_target": "T1, HMG-CoA reductase (Rattus norvegicus, UniProt P51639)", "T1 sequence (P51639 1-887)": "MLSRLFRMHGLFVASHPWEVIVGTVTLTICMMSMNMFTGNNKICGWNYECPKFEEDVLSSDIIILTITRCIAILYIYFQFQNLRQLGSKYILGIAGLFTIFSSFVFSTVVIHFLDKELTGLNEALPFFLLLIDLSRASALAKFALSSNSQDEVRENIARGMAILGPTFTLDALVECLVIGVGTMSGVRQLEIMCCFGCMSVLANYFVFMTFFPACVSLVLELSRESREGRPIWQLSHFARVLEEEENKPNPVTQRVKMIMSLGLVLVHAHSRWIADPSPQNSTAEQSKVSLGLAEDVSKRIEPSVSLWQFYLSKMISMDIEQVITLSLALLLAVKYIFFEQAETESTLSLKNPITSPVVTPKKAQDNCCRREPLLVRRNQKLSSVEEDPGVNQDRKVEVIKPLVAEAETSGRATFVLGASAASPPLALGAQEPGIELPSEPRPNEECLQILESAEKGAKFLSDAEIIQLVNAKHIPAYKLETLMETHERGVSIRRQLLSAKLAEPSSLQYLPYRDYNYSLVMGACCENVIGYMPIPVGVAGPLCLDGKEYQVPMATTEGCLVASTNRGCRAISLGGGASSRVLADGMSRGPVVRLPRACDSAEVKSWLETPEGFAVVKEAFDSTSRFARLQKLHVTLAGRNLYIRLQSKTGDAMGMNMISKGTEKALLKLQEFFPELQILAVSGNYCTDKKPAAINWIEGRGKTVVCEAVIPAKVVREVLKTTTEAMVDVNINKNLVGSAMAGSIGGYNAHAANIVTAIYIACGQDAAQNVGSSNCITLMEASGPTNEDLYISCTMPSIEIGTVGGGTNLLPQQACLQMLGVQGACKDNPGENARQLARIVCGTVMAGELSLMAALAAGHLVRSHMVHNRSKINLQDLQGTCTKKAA", "assay": "intrinsic HMG-CoA reductase inhibition, in vitro protocol (J. Med. Chem., 28, p. 347-358 (1985))", "assay_type": "biochemical", "conditions": "compactin (mevastatin) assigned a value of 100; IC50 of test compound compared with that of mevastatin determined simultaneously", "description": "The intrinsic HMG-CoA reductase inhibition activity of the claimed compounds is measured in the in vitro protocol published in J. Med. Chem., 28, p. 347-358 (1985).\nFor estimation of relative inhibitory potencies, compactin (i.e., mevastatin) was assigned a value of 100 and the IC50 value of the test compound was compared with that of mevastatin (compactin) determined simultaneously in the published in vitro protocol.", "values": [
      {"smiles": "CCC(C)(C)C(=O)O[C@H]1CC(COC(=O)Nc2ccccc2)=CC2=CC[C@H](C)[C@H](CC[C@@H]3C[C@@H](O)CC(=O)O3)[C@H]21", "note": "[Example 4, 6(R)-[2-[8(S)-(2,2-dimethylbutyryloxy)-2(S)-methyl-6-phenylaminocarbonyloxymethyl-1,2,3,7,8,8a(R)-hexahydronaphthyl-1(S)]-ethyl]-4(R)-hydroxy-3,4,5,6-tetrahydro-2H-pyran-2-one]", "Relative Potency": 200},
      {"smiles": "CCC(C)(C)C(=O)O[C@H]1CC(C(=O)O)=CC2=CC[C@H](C)[C@H](CC[C@@H]3C[C@@H](O)CC(=O)O3)[C@H]21", "note": "[Example 2, 6(R)-[2-[8(S)-(2,2-dimethylbutyryloxy)-2(S)-methyl-6-carboxy-1,2,3,7,8,8a(R)-hexahydronaphthyl-1(S)]-ethyl]-4(R)-hydroxy-3,4,5,6-tetrahydro-2H-pyran-2-one]", "Relative Potency": 100},
      {"smiles": "CCC(C)(C)C(=O)O[C@H]1CC(CO)=CC2=CC[C@H](C)[C@H](CC[C@@H]3C[C@@H](O)CC(=O)O3)[C@H]21", "note": "[Example 1, 6(R)-[2-[8(S)-(2,2-dimethylbutyryloxy)-2(S)-methyl-6-hydroxymethyl-1,2,3,7,8,8a(R)-hexahydronaphthyl-1(S)]-ethyl]-4(R)-hydroxy-3,4,5,6-tetrahydro-2H-pyran-2-one]", "Relative Potency": 75}
    ]}
  ]
}
